Measurements reported in PubChem BioAssay (NCI).
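Step 1: Grow cells in 96-well plates. Step 2: Expose to compound for 48 hours at 5 concentrations. Step 3: Interpolate endpoints linearly; if unreached, use highest concentration. TGI is the concentration that stops growth completely.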

Key:
Assay in all cases: inhibition of tumour cell growth, NCI panel, 48 h
[1] = test system: 786-0 renal
[2] = test system: HCC-2998 colon
[3] = test system: HOP-62 NSCLC
[4] = test system: K-562 leukemia
[5] = test system: KM12 colon
[6] = test system: NCI-H460 lung
[7] = test system: OVCAR-3 ovarian
[8] = test system: SK-MEL-28 melanoma
[9] = test system: SNB-75 CNS
[10] = test system: SR leukemia

`COc1ccc(OC)c(-c2cc(=O)c3cc4c(cc3[nH]2)OCO4)c1` showed a TGI [1] of over 100 µM, a TGI [2] of 17.6 µM and a TGI [3] of 67.7 µM. The TGI [4] was over 100 µM, the TGI [5] was over 46 µM and the TGI [6] was over 37.2 µM. For the same compound, the TGI [7] was over 55.2 µM, the TGI [8] was over 100 µM and the TGI [9] was over 38.1 µM. For the same compound, the TGI [10] was over 27.9 µM.
